From PMC7601231 (Polymers, 2020)

Legend:
[1] = Biodistribution study in rats; format: in vivo; conditions: 10 mg/kg, 10, 60 and 360 min after administration
[2] = Pharmacokinetic study in rats after injection; format: in vivo, Sprague–Dawley rats; conditions: 10 mg/kg, n = 12
Experimental: Blood samples (0.5 mL) were taken from the retinal vein of the rats using a capillary and at the following time points after injecting: 5, 10, 15, 30 min, 1, 2, 4, 6, 8, 10 and 12 h. The sample should be transferred to the heparin sodium tube for anticoagulation. The samples were centrifuged at 4000 rpm for 10 min. The resultant plasma was poured into 2-mL cryogenic plastic tubes and stored in a freezer (at […]) until assayed. A week later, the two groups of animals exchanged the drug and obtained plasma samples, which were stored in the −20-degree refrigerator for analysis. The sample was extracted in the following steps: the plasma ([…]) was mixed with […] of paclitaxel solution (4.0 mg/mL) as […], and 1.0 mL methyl tert-butyl ether in a 2-mL plastic centrifuge tube, centrifuged at 10,000 rpm for 5 min to precipitate the proteins and the supernatant layer (0.8 mL) was blown dry by N2 and is dissolved by 0.1 mL methanol, which was centrifuged at 10,000 rpm for 10 min. The supernatant layer ([…]) was analyzed by LC-MS (Waters, American).
The plasma concentration versus time curves of the two preparations were plotted. The pharmacokinetic parameters such as elimination rate (Ke) and elimination half-life (T1/2) were calculated by using DAS2.0 software. The maximum peak concentration (Cmax) and the corresponding sampling time (Tmax) were obtained from the curves directly. The areas under the plasma concentration–time curve from time zero to time t (AUC0–t) and from time zero to infinity (AUC0-∞) were calculated by the method of moments. Statistical comparisons were made by using a ANOVA test and p value smaller than 0.05 was considered statistically significant.

[3] = Vascular stimulation test, ear vein injection; format: in vivo, New Zealand white rabbits; conditions: rabbit ear vein, 0.7 mg/kg, every day, three injections
Experimental: Preparations were administered every day for a total of three injections. At designed time points, rabbits were anesthetized and ear tissue was soaked with 10% formalin. Then the histopathologic examination was conducted.

[4] = Phase-solubility studies of DTX in SBE-β-CD aqueous solution; format: physicochemical; conditions: 25 °C
Experimental: In this study, the stability constant was assessed by classic determination method using solubility diagrams that required calculations involving drug solubility. […] Then the resulting suspensions were shaken in a thermostatic air-bath shaker at 25 °C for 48 h until equilibrium was achieved. After that, the saturated supernatant fluid was centrifuged for 5 min under 5000 rpm, and then the top fluid was withdrawn and filtered through a 0.45-μm filter. The filtrate was diluted appropriately with deionized water and analyzed by HPLC as reported above.

CC(=O)O[C@@]12CO[C@@H]1C[C@H](O)[C@@]1(C)C(=O)[C@H](O)C3=C(C)[C@@H](OC(=O)[C@H](O)[C@@H](NC(=O)OC(C)(C)C)c4ccccc4)C[C@@](O)([C@@H](OC(=O)c4ccccc4)[C@H]21)C3(C)C [DTX, Docetaxel]
concentration of DTX in brain, fat and testis [1]: low
AUC(0-t) [2]: 881.4 ± 30.4 ng/mL ∗ h
AUC(0-∞) [2]: 925.8 ± 35.2 ng/mL ∗ h
Cmax ([2]; male, Sprague-Dawley, rat, plasma, other: injection): 1100 ± 98 ng/mL
vascular stimulation: reaction at the injection site (histopathology) [3]: serious vascular inflammation and surrounding tissue lesions
increase of water solubility of DTX over its original values [4]: about 800 times
